Reference: patent US10718006B2, “Methods for detecting beta-lactamase-producing bacteria” (priority 2015, dated 2020)

What was measured:
Test in all cases: Electrochemical assay with substrate HMRZ-86, liquid cultures
Type in all cases: cell-based
C. freundii strain = conditions: C. freundii 11745, Inducible cephalosporinase; liquid culture, 30 min with HMRZ-86
Method: (§1) Each cryopreserved strain is cultured in 10 mL of LB medium at 37° C. until the stationary phase is obtained.
(§2) A volume of 50 μL of culture liquid is incubated in the presence of 50 μL of a solution of HMRZ-86 at 0.5 mM in PBS at 37° C. with stirring for 30 min. 40 μL of the reaction mixture is taken and transferred onto the surface of a screen-printed carbon sensor (Dropsens, DRP-110) connected beforehand to a STAT 8000P portable potentiostat (Dropsens) with power supply from the computer's USB port and controlled by the DropView 8400 software. Linear voltammetry measurements are carried out by linear potential scanning from −0.1 V to 1.2 V at a rate of 50 mV·s^−1. The peak current appearing in the potential range +0.2 to +0.55 V vs. Ag/AgCl, associated with hydrolysis of the beta-lactam ring of HMRZ-86, is selected as the analytical response. If the intensity of the peak (i) has a value above 500 nA, the sample contains a strain capable of degrading the C3Gs.
(§3) The electrochemical method of the invention was applied to analysis of a panel of 40 strains producing various β-lactamases and was compared with the R-Lacta™ Test (Biorad), the principle of which is based on qualitative colorimetric detection of the C3G-resistant strains. The results presented in Table 7 were obtained after 30 min of incubation of the bacteria with the substrate HMRZ-86 for both methods. Based on the interpretation of the results proposed by the supplier, the R-Lacta™ Test allows identification of the C3G-resistant strains with a level of agreement of 68%, whereas a level of agreement of 95% was obtained with the electrochemical method of the invention. In contrast to colorimetry, amperometry offers the advantage of measuring a numerical value of current which, on the one hand, avoids any subjective interpretation of the result (intermediate colour), and on the other hand allows traceability of the result.
(§4) Table 7: Comparison of the results obtained with the electrochemical method of the invention for liquid cultures with those obtained with the R-Lacta™ Test implemented according to the supplier's recommendations with isolated colonies. In both cases, the readings were taken after incubation with the substrate HMRZ-86 for 30 min.

E. aerogenes strains = conditions: liquid culture, 30 min with HMRZ-86
Method: as §1, §2, §3, §4

E. cloacae strains = conditions: liquid culture, 30 min with HMRZ-86
Method: as §1, §2, §3, §4

[1] = test system: E. coli strains producing various β-lactamases; conditions: liquid culture, 30 min with HMRZ-86
Method: as §1, §2, §3, §4

K. oxytoca strain = conditions: K. oxytoca 11779, Low-level penicillinase; liquid culture, 30 min with HMRZ-86
Method: as §1, §2, §3, §4

K. pneumoniae strains = conditions: liquid culture, 30 min with HMRZ-86
Method: as §1, §2, §3, §4

P. mirabilis strains = conditions: liquid culture, 30 min with HMRZ-86
Method: as §1, §2, §3, §4

S. marcescens strain = conditions: S. marcescens 11787, Hyperproduced cephalosporinase; liquid culture, 30 min with HMRZ-86
Method: as §1, §2, §3, §4

CC(C)(ON=C(C(=O)N[C@@H]1C(=O)N2C(C(=O)O)=C(C=Cc3ccc([N+](=O)[O-])cc3[N+](=O)[O-])CS[C@H]12)c1csc(N)n1)C(=O)O.O=C(O)C(F)(F)F [HMRZ-86, (6R,7R)-trifluoroacetate 7-[[2-(2-amino-4-thiazolyl)-2-[(1-carboxy-1-methylethoxy)imino]acetyl]amino]-1-aza-3-[2-(2,4-dinitrophenyl)ethenyl]-8-oxo-5-thiabicyclo[4.2.0]oct-2-ene-2-carboxylic acid]
Electrochemical assay Intensity (C. freundii strain): 369 nA
Electrochemical assay Intensity (E. aerogenes strains; E. aerogenes 11772, Inducible cephalosporinase): 362 nA
Electrochemical assay Intensity (E. aerogenes strains; E. aerogenes 11775, Hyperproduced cephalosporinase): 501 nA
Electrochemical assay Intensity (E. aerogenes strains; E. aerogenes 11796, ESBL TEM 24): 1249 nA
Electrochemical assay Intensity (E. cloacae strains; E. cloacae 11784, Hyperproduced cephalosporinase): 569 nA
Electrochemical assay Intensity (E. cloacae strains; E. cloacae 11790, Hyperproduced cephalosporinase): 686 nA
Electrochemical assay Intensity (E. cloacae strains; E. cloacae 11794, Hyperproduced cephalosporinase): 842 nA
Electrochemical assay Intensity ([1]; E. coli 11746, Hyperproduced penicillinase): 380 nA
Electrochemical assay Intensity ([1]; E. coli 11748, Inducible cephalosporinase): 424 nA
Electrochemical assay Intensity ([1]; E. coli 11755, Carbapenemase OXA-48 - CTX-M): 3509 nA
Electrochemical assay Intensity ([1]; E. coli 11757, Carbapenemase OXA-48): 625 nA
Electrochemical assay Intensity ([1]; E. coli 11765, Hyperproduced penicillinase): 323 nA
Electrochemical assay Intensity ([1]; E. coli 11766, Inducible cephalosporinase): 408 nA
Electrochemical assay Intensity ([1]; E. coli 11776, Inducible cephalosporinase): 446 nA
Electrochemical assay Intensity ([1]; E. coli 11780, Hyperproduced penicillinase): 425 nA
Electrochemical assay Intensity ([1]; E. coli 11781, Low-level penicillinase): 377 nA
Electrochemical assay Intensity ([1]; E. coli 11791, Hyperproduced cephalosporinase): 816 nA
Electrochemical assay Intensity ([1]; E. coli 11810, ESBL CTX-M-1): 2544 nA
Electrochemical assay Intensity ([1]; E. coli 11817, ESBL CTX-M-2): 1472 nA
Electrochemical assay Intensity ([1]; E. coli 11818, ESBL CTX-M-1): 3583 nA
Electrochemical assay Intensity ([1]; E. coli 11820, ESBL SHV-12): 1249 nA
Electrochemical assay Intensity ([1]; E. coli 11828, ESBL CTX-M-27): 2640 nA
Electrochemical assay Intensity ([1]; E. coli 11833, ESBL CTX-M-9): 2455 nA
Electrochemical assay Intensity ([1]; E. coli 11834, ESBL TEM-12): 418 nA
Electrochemical assay Intensity ([1]; E. coli 11863, ESBL CTX-M-14): 2544 nA
Electrochemical assay Intensity ([1]; E. coli K12, Beta-lactamase negative): 302 nA
Electrochemical assay Intensity (K. oxytoca strain): 412 nA
Electrochemical assay Intensity (K. pneumoniae strains; K. pneumoniae 11754, Carbapenemase OXA-48 - CTX-M): 3520 nA
Electrochemical assay Intensity (K. pneumoniae strains; K. pneumoniae 11762, Carbapenemase OXA-48): 476 nA
Electrochemical assay Intensity (K. pneumoniae strains; K. pneumoniae 11770, Low-level penicillinase): 365 nA
Electrochemical assay Intensity (K. pneumoniae strains; K. pneumoniae 11812, ESBL CTX-M-15): 3494 nA
Electrochemical assay Intensity (K. pneumoniae strains; K. pneumoniae 11839, Carbapenemase KPC-2): 1567 nA
Electrochemical assay Intensity (K. pneumoniae strains; K. pneumoniae 11842, Carbapenemase NDM-1): 1257 nA
Electrochemical assay Intensity (P. mirabilis strains; P. mirabilis 11747, Beta-lactamase negative): 322 nA
Electrochemical assay Intensity (P. mirabilis strains; P. mirabilis 11768, Low-level penicillinase): 233 nA
Electrochemical assay Intensity (S. marcescens strain): 3922 nA
